Assay results from US11135214B2, “Methods for enhancing the bio availability and exposure of a voltage-gated potassium channel opener” (priority 2018, dated 2021).

System: spontaneous brain oscillations
Experiment: TMS crossover study, resting state EEG
Type: in vivo, human
Description: Sensor-level delta (2-4 Hz), theta (4-7 Hz), alpha (8-12 Hz) and beta (13-30 Hz) frequency activity was estimated using a Fast Fourier Transform (FFT) approach. Power of all frequencies between 2 and 30 Hz were estimated, using a frequency resolution of 0.5 Hz. A non-parametric dependent samples t-test based on a permutation approach (1500 permutations) was used to test differences between drug conditions on all EEG sensors.

[1] = at highest Compound A plasma concentration vs pre-dose

Cc1cc(N2CCc3cc(F)ccc3C2)cc(C)c1NC(=O)CC(C)(C)C [Compound A, N-[4-(6-fluoro-3,4-dihydro-1H-isoquinolin-2-yl)-2,6-dimethylphenyl]-3,3-dimethylbutanamide]
shift of power spectra of resting state EEGs (20 mg): toward lower frequencies
Modulation of resting state EEG bands, Delta (2 h after dosing vs pre-dose): ↑ Delta
Modulation of resting state EEG bands, Theta (2 h after dosing vs pre-dose): ↑ Theta
Modulation of resting state EEG bands, Beta (4 h after dosing vs pre-dose): ↑ Beta
Modulation of resting state EEG bands, Delta (4 h after dosing vs pre-dose): ↑ Delta
Modulation of resting state EEG bands, Theta (4 h after dosing vs pre-dose): ↑ Theta
resting state delta power vs pre-dose (all available subjects, 2 h p<0.001, 4 h p<0.001): significantly increased
resting state beta band power vs pre-dose (all available subjects, 2 h p=0.005, 4 h p<0.001, 6 h p=0.009): significantly increased
resting state theta power vs pre-dose (all available subjects, 2 h p=0.006, 4 h two clusters p=0.008 and p=0.03): significantly increased
Modulation of resting state EEG bands, Beta [1]: ↑ Beta
Modulation of resting state EEG bands, Delta [1]: ↑ Delta
Modulation of resting state EEG bands, Theta [1]: ↑ Theta
resting state delta power vs pre-dose (concentration analysis N=16, high plasma exposure, p<0.001): increase in power
resting state beta power vs pre-dose (concentration analysis N=16, high plasma exposure, p=0.005): increase in power
resting state theta power vs pre-dose (concentration analysis N=16, high plasma exposure, p=0.01): increase in power
resting state delta power compared to placebo (post-dose minus pre-dose, p<0.001): overall increase of power
resting state beta power compared to placebo (post-dose minus pre-dose, p=0.003): overall increase of power
resting state theta power compared to placebo (post-dose minus pre-dose, p=0.02): overall increase of power
resting state delta power vs pre-dose (subjects with drug exposure, 2 h p=0.001, 4 h p<0.001): significantly increased
resting state beta band power vs pre-dose (subjects with drug exposure, 2 h p=0.01, 4 h p<0.001): significantly increased
resting state theta power vs pre-dose (subjects with drug exposure, 2 h p=0.01, 4 h p=0.01): significantly increased
